Measurements: the supplement of paper PMC11061612

What was measured:
AZD1775 = compound: C=CCn1c(=O)c2cnc(Nc3ccc(N4CCN(C)CC4)cc3)nc2n1-c1cccc(C(C)(C)O)n1 [AZD1775]; conditions: max 3 µM
Outline: (§1)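 In 1536-well plates, cancer cell lines in 7.5 μl DMEM/F12 or RPMI with 10% FBS spent 24 hours at 37°C and 5% CO2 and were then dosed for 72 hours with final DMSO typically 0.2%. Viability was read by CellTiter-Glo 2.0 luminescence and scaled between blank-well and DMSO-well means. The single-agent IC50 was fitted from dose responses using a logistic curve in a non-linear mixed effects model, and that logistic curve had two parameters.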

Trametinib = compound: CC(=O)Nc1cccc(-n2c(=O)n(C3CC3)c(=O)c3c(Nc4ccc(I)cc4F)n(C)c(=O)c(C)c32)c1 [Trametinib]; conditions: max 1 µM
Outline: as §1

AZD7648 = compound: Cc1cc2ncnn2cc1Nc1ncc2c(n1)n(C1CCOCC1)c(=O)n2C [AZD7648]; conditions: max 10 µM
Outline: as §1

5-Fluorouracil = compound: O=c1[nH]cc(F)c(=O)[nH]1 [5-Fluorouracil]; conditions: max 20 µM
Outline: as §1

Gemcitabine = compound: Nc1ccn([C@@H]2O[C@H](CO)[C@@H](O)C2(F)F)c(=O)n1 [Gemcitabine]; conditions: max 0.3 µM
Outline: as §1

Etoposide = compound: COc1cc([C@@H]2c3cc4c(cc3[C@@H](O[C@@H]3O[C@@H]5CO[C@@H](C)O[C@H]5[C@H](O)[C@H]3O)[C@H]3COC(=O)[C@H]23)OCO4)cc(OC)c1O [Etoposide]; conditions: max 10 µM
Outline: as §1

AZD5363 = compound: C1CN(CCC1(C(=O)N[C@@H](CCO)C2=CC=C(C=C2)Cl)N)C3=NC=NC4=C3C=CN4 [AZD5363]; conditions: max 10 µM
Outline: as §1

Taselisib = compound: Cc1nc(-c2cn3c(n2)-c2ccc(-c4cnn(C(C)(C)C(N)=O)c4)cc2OCC3)n(C(C)C)n1 [Taselisib]; conditions: max 10 µM
Outline: as §1

Palbociclib = compound: CC(=O)c1c(C)c2cnc(Nc3ccc(N4CCNCC4)cn3)nc2n(C2CCCC2)c1=O [Palbociclib]; conditions: max 10 µM
Outline: as §1

SN-38 = compound: CCc1c2c(nc3ccc(O)cc13)-c1cc3c(c(=O)n1C2)COC(=O)[C@]3(O)CC [SN-38]; conditions: max 0.3 µM
Outline: as §1

SG3199 = compound: CC1=CN2[C@@H](C1)C=NC3=CC(=C(C=C3C2=O)OC)OCCCCCOC4=C(C=C5C(=C4)N=C[C@@H]6CC(=CN6C5=O)C)OC [SG3199]; conditions: max 0.001 µM
Outline: as §1

Gefitinib = compound: COc1cc2ncnc(Nc3ccc(F)c(Cl)c3)c2cc1OCCCN1CCOCC1 [Gefitinib]; conditions: max 10 µM
Outline: as §1

AZD8186 = compound: C[C@@H](Nc1cc(F)cc(F)c1)c1cc(C(=O)N(C)C)cc2c(=O)cc(N3CCOCC3)oc12 [AZD8186]; conditions: max 10 µM
Outline: as §1

Dasatinib = compound: CC1=C(C(=CC=C1)Cl)NC(=O)C2=CN=C(S2)NC3=CC(=NC(=N3)C)N4CCN(CC4)CCO [Dasatinib]; conditions: max 2 µM
Outline: as §1

Doxorubicin = compound: COc1cccc2c1C(=O)c1c(O)c3c(c(O)c1C2=O)C[C@@](O)(C(=O)CO)C[C@@H]3O[C@H]1C[C@H](N)[C@H](O)[C@H](C)O1 [Doxorubicin]; conditions: max 1 µM
Outline: as §1

SRA737 = compound: N#Cc1cnc(Nc2cc(NC[C@H]3CNCCO3)c(C(F)(F)F)cn2)cn1 [SRA737]; conditions: max 10 µM
Outline: as §1

AZD5991 = compound: Cc1c2c(nn1C)CSCc1cc(n(C)n1)CSc1cc(c3ccccc3c1)OCCCc1c(C(=O)O)n(C)c3c-2c(Cl)ccc13 [AZD5991]; conditions: max 1 µM
Outline: as §1

Crizotinib = compound: C[C@@H](Oc1cc(-c2cnn(C3CCNCC3)c2)cnc1N)c1c(Cl)ccc(F)c1Cl [Crizotinib]; conditions: max 10 µM
Outline: as §1

MK-2206 = compound: NC1(c2ccc(-c3nc4ccn5c(=O)[nH]nc5c4cc3-c3ccccc3)cc2)CCC1 [MK-2206]; conditions: max 10 µM
Outline: as §1

AZD2811 = compound: CCN(CCO)CCCOc1ccc2c(Nc3cc(CC(=O)Nc4cccc(F)c4)[nH]n3)ncnc2c1 [AZD2811]; conditions: max 1 µM
Outline: as §1

AZD5153 = compound: COc1nnc2ccc(N3CCC(c4ccc(OCCN5CCN(C)C(=O)[C@H]5C)cc4)CC3)nn12 [AZD5153]; conditions: max 1 µM
Outline: as §1

AZD6738 = compound: C[C@@H]1COCCN1C2=NC(=NC(=C2)C3(CC3)[S@](=N)(=O)C)C4=C5C=CNC5=NC=C4 [AZD6738]; conditions: max 10 µM
Outline: as §1

[1] = compound: O=C(Nc1ccc2[nH]nc(-c3ccncc3)c2c1)[C@@H]1CCN(CC(=O)N2CCN(c3ccc(-c4ncccn4)cc3)CC2)C1; conditions: max 5 µM
Outline: as §1

AZD1390 = compound: CC(C)n1c(=O)n(C)c2cnc3cc(F)c(-c4ccc(OCCCN5CCCCC5)nc4)cc3c21 [AZD1390]; conditions: max 0.3 µM
Outline: as §1

AZD4320 = compound: CN(CC[C@H](CSC1=CC=CC=C1)NC2=C(C=C(C=C2)S(=O)(=O)NC(=O)C3=CC=C(C=C3)N4CCC(CC4)[C@H](C5=CC=CC=C5C6=CC=C(C=C6)Cl)O)S(=O)(=O)C(F)(F)F)CCO [AZD4320]; conditions: max 1 µM
Outline: as §1

Lapatinib = compound: CS(=O)(=O)CCNCc1ccc(-c2ccc3ncnc(Nc4ccc(OCc5cccc(F)c5)c(Cl)c4)c3c2)o1 [Lapatinib]; conditions: max 10 µM
Outline: as §1

Savolitinib = compound: C[C@@H](c1ccc2nccn2c1)n1nnc2ncc(-c3cnn(C)c3)nc21 [Savolitinib]; conditions: max 1 µM
Outline: as §1

AZD0156 = compound: CN(C)CCCOc1ccc(-c2ccc3ncc4c(c3c2)n(C2CCOCC2)c(=O)n4C)cn1 [AZD0156]; conditions: max 3 µM
Outline: as §1

Olaparib = compound: O=C(c1cc(Cc2n[nH]c(=O)c3ccccc23)ccc1F)N1CCN(C(=O)C2CC2)CC1 [Olaparib]; conditions: max 10 µM
Outline: as §1

Carboplatin = compound: C1CC(C1)(C(=O)[O-])C(=O)[O-].N.N.[Pt+2] [Carboplatin]; conditions: max 10 µM
Outline: as §1

Alisertib = compound: COc1cc(Nc2ncc3c(n2)-c2ccc(Cl)cc2C(c2c(F)cccc2OC)=NC3)ccc1C(=O)O [Alisertib]; conditions: max 10 µM
Outline: as §1

Paclitaxel = compound: CC(=O)O[C@H]1C(=O)[C@@]2(C)[C@H]([C@H](OC(=O)c3ccccc3)[C@]3(O)C[C@H](OC(=O)[C@H](O)[C@@H](NC(=O)c4ccccc4)c4ccccc4)C(C)=C1C3(C)C)[C@]1(OC(C)=O)CO[C@@H]1C[C@@H]2O [Paclitaxel]; conditions: max 3 µM
Outline: as §1

Venetoclax = compound: CC1(C)CCC(CN2CCN(c3ccc(C(=O)NS(=O)(=O)c4ccc(NCC5CCOCC5)c([N+](=O)[O-])c4)c(Oc4cnc5[nH]ccc5c4)c3)CC2)=C(c2ccc(Cl)cc2)C1 [Venetoclax]; conditions: max 1 µM
Outline: as §1

Selumetinib = compound: Cn1cnc2c(F)c(Nc3ccc(Br)cc3Cl)c(C(=O)NOCCO)cc21 [Selumetinib]; conditions: max 10 µM
Outline: as §1

Prexasertib = compound: COc1cccc(OCCCN)c1-c1cc(Nc2cnc(C#N)cn2)n[nH]1 [Prexasertib]; conditions: max 1 µM
Outline: as §1

Row | Cell Line | IC50, cell viability 72 h (AZD1775) | IC50, cell viability 72 h (Trametinib) | IC50, cell viability 72 h (AZD7648) | IC50, cell viability 72 h (5-Fluorouracil) | IC50, cell viability 72 h (Gemcitabine) | IC50, cell viability 72 h (Etoposide) | IC50, cell viability 72 h (AZD5363) | IC50, cell viability 72 h (Taselisib) | IC50, cell viability 72 h (Palbociclib) | IC50, cell viability 72 h (SN-38) | IC50, cell viability 72 h (SG3199) | IC50, cell viability 72 h (Gefitinib) | IC50, cell viability 72 h (AZD8186) | IC50, cell viability 72 h (Dasatinib) | IC50, cell viability 72 h (Doxorubicin) | IC50, cell viability 72 h (SRA737) | IC50, cell viability 72 h (AZD5991) | IC50, cell viability 72 h (Crizotinib) | IC50, cell viability 72 h (MK-2206) | IC50, cell viability 72 h (AZD2811) | IC50, cell viability 72 h (AZD5153) | IC50, cell viability 72 h (AZD6738) | IC50, cell viability 72 h [1] | IC50, cell viability 72 h (AZD1390) | IC50, cell viability 72 h (AZD4320) | IC50, cell viability 72 h (Lapatinib) | IC50, cell viability 72 h (Savolitinib) | IC50, cell viability 72 h (AZD0156) | IC50, cell viability 72 h (Olaparib) | IC50, cell viability 72 h (Carboplatin) | IC50, cell viability 72 h (Alisertib) | IC50, cell viability 72 h (Paclitaxel) | IC50, cell viability 72 h (Venetoclax) | IC50, cell viability 72 h (Selumetinib) | IC50, cell viability 72 h (Prexasertib)
1 | LOUCY (T-Lymphoblastic Leukemia) | 0.257 µM | > 1 µM | 7.43 µM | > 20 µM | > 0.3 µM | 5 µM | 2.45 µM | 3.53 µM | > 10 µM | 0.172 µM | > 0.001 µM | > 10 µM | > 10 µM | > 2 µM | > 1 µM | 2.72 µM | > 1 µM | 4 µM | 1.23 µM | 0.00815 µM | 0.385 µM | 1.31 µM | > 5 µM | > 0.3 µM | 0.00375 µM | > 10 µM | > 1 µM | > 3 µM | > 10 µM | > 10 µM | 0.597 µM | 0.0135 µM | 0.0317 µM | > 10 µM | 0.00697 µM
2 | NCI-H810 (Non-Small Cell Lung Carcinoma) | 0.437 µM | > 1 µM | > 10 µM | > 20 µM | > 0.3 µM | > 10 µM | > 10 µM | > 10 µM | > 10 µM | 0.202 µM | > 0.001 µM | > 10 µM | > 10 µM | > 2 µM | 0.88 µM | > 10 µM | > 1 µM | > 10 µM | > 10 µM | 0.33 µM | 0.442 µM | > 10 µM | > 5 µM | > 0.3 µM | > 1 µM | > 10 µM | > 1 µM | > 3 µM | > 10 µM | > 10 µM | 1.38 µM | 0.282 µM | > 1 µM | > 10 µM | 0.0528 µM
3 | NCI-H1755 (Lung Adenocarcinoma) | 0.363 µM | 0.444 µM | > 10 µM | > 20 µM | > 0.3 µM | > 10 µM | > 10 µM | 2.41 µM | 9 µM | > 0.3 µM | > 0.001 µM | > 10 µM | > 10 µM | 0.211 µM | > 1 µM | 2.3 µM | > 1 µM | 3.97 µM | > 10 µM | > 1 µM | > 1 µM | 2.08 µM | 1.95 µM | > 0.3 µM | > 1 µM | > 10 µM | > 1 µM | > 3 µM | > 10 µM | > 10 µM | 3.91 µM | 0.0582 µM | > 1 µM | > 10 µM | 0.0108 µM
4 | NKM-1 (Acute Myeloid Leukemia) | 0.455 µM | 0.0833 µM | > 10 µM | 3.19 µM | 0.00513 µM | 0.496 µM | 8.12 µM | 0.201 µM | 1.25 µM | 0.00201 µM | > 0.001 µM | > 10 µM | 1.27 µM | 0.147 µM | 0.0241 µM | 2.37 µM | 0.0493 µM | 2.03 µM | 0.855 µM | 0.502 µM | 0.0594 µM | 1.86 µM | 2 µM | > 0.3 µM | 0.00773 µM | > 10 µM | > 1 µM | > 3 µM | 4.42 µM | > 10 µM | 0.177 µM | 0.00366 µM | 0.102 µM | 2.7 µM | 0.015 µM
5 | OV-90 (Ovarian Carcinoma) | > 3 µM | 0.0837 µM | > 10 µM | > 20 µM | > 0.3 µM | > 10 µM | > 10 µM | > 10 µM | > 10 µM | 0.265 µM | > 0.001 µM | > 10 µM | > 10 µM | > 2 µM | > 1 µM | > 10 µM | > 1 µM | > 10 µM | > 10 µM | > 1 µM | > 1 µM | > 10 µM | 1.88 µM | > 0.3 µM | > 1 µM | > 10 µM | > 1 µM | > 3 µM | > 10 µM | > 10 µM | > 10 µM | > 3 µM | > 1 µM | 7.81 µM | 0.523 µM
